Data reported in US6566047B1, “Method for identifying neurite-growth promoting agents” (The Regents of the University of Colorado, priority 1998, dated 2003).
Entries after “also recorded” stand apart in the source; their conditions may differ. Each block holds one compound with its values, some of them ahead of it.

Experiments:
[1] = system: MAT-Lu cells; assay: Pseudopod morphometry (pseudopod length assay), MAT-Lu cells; assay type: cell-based, rat; conditions: for effect of agent alone on pseudopod length: typically 15 min exposure
Description: (§1) Pseudopod Morphometry. To study the effects of various agents on pseudopods on a short-term basis, we measured pseudopod lengths. Cells plated in 35-mm diameter dishes at low density (1×10^4 per dish) were incubated overnight, tie medium was changed, and the experiments were run four hours later. First, cultures were shifted to serum-free medium, which was replaced one hour later by serum-free medium with or without the various agents (thrombin, AA or HETEs). Care was taken to avoid heat and light inactivation of the eicosanoids. Culture dishes were placed on a Zeiss inverted microscope equipped with a heated stage and viewed with a 16×phase contrast objective lens. Randomly selected fields of the cultures, containing generally about 20 cells each, were recorded, digitized and stored in the computer at the onset of the experiment and at different times thereafter.
(§2) In some cases, individual cells were monitored over different periods of time immediately after introduction of the reagent, either by mixing it into the medium or by applying it locally to one end of the cell. Local application was done with a “puffer” system that expels microliter amounts of the desired solution from a micromanipulator-controlled micropipette tip. Cell morphology was recorded, and the captured images were analyzed with a Power Macintosh computer using NIH Image. Cell process length was measured from the center of the nucleus to the end of the process. Characterization of the frequencies of pseudopod lengths, at a fixed time for each of a sequence of concentrations of reagent, utilized a gamma regression model with an inverse quadratic linear predictor (McCullagh and Nelder, Generalized Linear Models 2d ed., pp. 291-292 (Chapman & Hall, 1989), separately fit to each concentration data set. Although no formal goodness-of-fit tests were carried out, in virtually every case there was good visual representation of the pattern of response (see FIG. 14). Most data, however, are shown as whisker-box plots, where the center point represents the 50%, the ends of the box the […] and 75%, and the “whiskers” the 5% and 95% quantiles (e.g., FIG. 11). Statistical comparisons of pseudopod lengths for different treatments were done by standard non-parametric techniques (Wilcoxon Rank Sum or Kruskal-Wallis Tests), as judged appropriate. Polynomial curve fittings were done by standard least-squares techniques. Statistical analyses and graphing were done with the use of SAS procedures: Reg, Phreg, Nparlway and Plot (SAS institute Inc., Cary, N.C.).

[2] = system: protein kinase C (PKC); assay: MARCKS phosphorylation by PKC in isolated GCPs; assay type: biochemical, rat; conditions: isolated growth cones
Source text: FIG. 7A. Thrombin stimulates MARCKS phosphorylation in a 12-LOX-dependent manner. FIG. 7B. 12(S)-HETE stimulates MARCKS phosphorylation by PKC in isolated GCPs. […] Polypeptides were resolved by SDS-PAGE. MARCKS phosphorylation was quantified by phosphorimaging.

[3] = biological target: protein kinase C; conditions: Kobayashi et al. 1989; cited from earlier work
[4] = system: MAT-Lu cells; assay: Boyden chamber motility assay, MAT-Lu cells; assay type: cell-based, rat; conditions: for Mat-Lu cells crossing filter in % of control +/− SEM: thrombin 200 nM, CDC 126 nM
Description: Boyden Chamber Motility Assays. Disposable transwells (Coming Costar, Cambridge, Mass.) of 6.5 mm diameter and 8 μm pore size were coated with 5 μg/ml laminin on both sides. The membranes were washed twice with Hank's balanced salt solution (HBSS) and then pre-incubated with growth medium containing 10% fetal bovine serum. Trypsinized cells (5×10^4) were plated into the upper well. After 1 hour the upper chamber was washed twice with HBSS, filled with serum-free medium and moved to a new lower chamber, also filled with serum-free medium, with or without thrombin and/or 0.75 nM insulin-like growth factor-1 (IGF-1). After incubation for 4 hrs, cells on the membrane were fixed and stained with a Diff-Quick kit (Baxter Scientific Products). Cells on the upper side were scraped off, the membranes were removed, mounted onto microscope slides and analyzed. Each filter was scanned twice at right angles under the light microscope with a 16×phase contrast objective lens. A continuous series of 20 frames for each filter was digitized using a high-resolution CCD camera (Kodak) and stored in a Power Macintosh computer. The two most peripheral pairs of frames from each scan were deleted so that 12 frames were analyzed for each filter. Cells that had crossed the membrane were counted and tabulated. The sum of the cells counted in the twelve frames was an individual data point.

[5] = system: growth cones in cultures of rat cerebral cortex; assay: Growth cone collapse assay in cortical neuron culture; assay type: cell-based
Description: Neuron Culture. Cerebral cortices were dissected from embryonic day 18 Sprague-Dawley rats, cut into explants of less than 1 mm^3 and cultured on either poly-D-lysine-coated coverglass (Assistent) or poly-D-lvsine-coated tissue culture plastic. After 24 hours in B27 neurobasal medium (NB) supplemented with 10% fetal bovine serum, cultures were switched to serum-free B27/NB. The cultures were incubated at 37° C. in 5% CO2 in air. Sprouting neurons were observed readily on day 1. On day 2 or 3, long neurites were present, and the cultures were used for collapse experiments.
Actin Staining. After experimentation, cultures were fixed by slow infusion of fixative (4% paraformaldehyde in 0.1 M phosphate buffer, pH 7.4) into the culture dishes over 10 min (Pfenninger and Maylié-Pfenninger, J. Cell Biol. 89:53-546 (1981)). Thereafter, the fixative was removed by rinsing three times with phosphate-buffered saline (PBS) containing 1 mM glycine. Cultures were then blocked with PBS/1% bovine serum albumin (BSA) and permeabilized by incubation in 0.02% Triton X-100 for 5 min. After three washes in PBS/BSA, cultures were incubated with Texas-Red-conjugated phalloidin for 30 min. Unbound phalloidin was washed away by two PBS rinses, after which the coverglasses were mounted in Slow-Fade Light on microscope slides. Images were recorded on 35 mm film using a Zeiss Axiophot fluorescence microscope equipped with epiillumination.
Growth Cone Collapse Assay. Prior to repellent factor treatment, some of the day 2-3 explant cultures were pre-incubated (at 37° C.) with inhibitor or vehicle control (dimethylsulfoxide or ethanol) for 30-60 min. Cultures were then challenged with a repellent factor or vehicle control for 1-30 min. In some experiments, live cultures were photographed with a Zeiss IM 35 inverted photo microscope equipped with a stage heater, while in others cultures were fixed (as above) after 7 minutes of repellent factor treatment. Growth cone collapse was assessed quantitatively in aldehyde-fixed cultures by grading the degree of collapse in a large number of randomly selected growth cones.

[6] = system: 12-Lox; assay: Eicosanoid (HETE) generation in GCPs; assay type: biochemical, rat
Description: Eicosanoid Assays. Eicosanoid production in GCPs was measured by metabolic labelling from ^14C-AA or ^14C-AA-PC or by mass spectrometric detection. […] To measure Lox activity directly, without PLA2 involvement, ^3H-AA was the substrate of choice. Reactions were stopped by the addition of chloroform/methanol as for the phospholipase assays. Reaction products were extracted as described by Birkle et al., Neuromethods, vol. 7, pp.227-244 (Humana Press, N.J. 1988), spotted on pre-activated si gel 60 TLC plates, and the plates developed in the upper phase of ethyl acetate/isooctane/acetic acid/water (100:60:20:100). AA and HETEs were identified by co-migration with standards. Appropriate bands were counted by liquid scintillation spectrometry.
For mass-spectrometric (MS) identification of HETEs, two different strategies were pursued:
(1) the appropriate bands from non-labelled samples (PC substrate) were scraped from the TLC plate into ether/methanol (9:1) and stored under N2 at −20° C. Authentic 12(S)-HETE, run alongside in the same manner, was used as a standard. Just prior to analysis, samples were passed over an SPE filter to eliminate silica particles, dried under argon, resuspended in 500 μl ethanol, and injected (at 3 μl/min) into a Finnigan LCQ quadrupole ion trap mass spectrometer (Finnigan MAT, San Jose, Calif.) equipped with an electrospray ionization source. All spectra were acquired at a capillary temperature of 80° C., and ion guide voltages were tuned to maximize the abundance of the deprotonated ion species [M-H]^− in negative mode. In order to generate a spectrum, typically 100 single scans were averaged.
(2) For the other strategy (liquid chromatography/tandem MS, LC/MS^2), the reaction substrate consisted of 3.5 μM AA, with the addition of 3.5 μM deuterated AA (AA-D8) plus 1 μCi ^3H-AA to track reaction products by mass and radioactivity, respectively. Reactions were stopped with ice-cold ethanol, the mixtures kept overnight at −20° C. under N2, and the proteins spun out The supernatants were diluted with H2O and loaded onto 1-ml C18 Sep-Pak columns (Varian). After washing with H2O, eicosanoid was eluted with 2 ml methanol. These samples were resolved by reverse-phase HPLC, and the eluted fractions analyzed by tandem MS on-line (MacMillan and Murphy, 1995). Collision-induced decomposition of HETE isomers produced characteristic fragments that were identified at the second MS stage.

[7] = system: 12-LOX; conditions: Cho et al., 1991; cited from earlier work
[8] = system: AT-2 cells; assay: Pseudopod length / retraction assay, AT-2 cells; assay type: cell-based, rat; conditions: AA even at 10^−1M
Description: as §1, §2

[9] = system: high motility (MAT-Lu, MAT-LyLu and AT-3) Dunning carcinoma cells; assay: Pseudopod length assay, high-motility Dunning carcinoma cells; assay type: cell-based, rat; conditions: all three high-motility cell types
Description: as §1
In some cases, individual cells were monitored over different periods of time immediately after introduction of the reagent, either by mixing it into the medium or by applying it locally to one end of the cell. […] Cell morphology was recorded, and the captured images were analyzed with a Power Macintosh computer using NIH Image. Cell process length was measured from the center of the nucleus to the end of the process. […]

[10] = biological target: PKC γ (Rattus norvegicus, UniProt P63319); conditions: Naor et al. 1988; cited from earlier work
[11] = system: growth cone PLA2; assay: PLA2 assay in growth cone particles (GCPs); assay type: biochemical, rat
Description: Growth Cone Particle (GCP) Isolation. GCPs were prepared as described by Pfenninger et al. (1983) and modified by Lohse et al., Dev. Brain Res., 96:38-96 (1996). Briefly, 18-day fetal brains were homogenized in approximately 8 volumes of 0.32 M sucrose containing 1 mM MgCl2, 2 mM TES buffer, pH 7.3, and 3 μM aprotinin. A low-speed supernatant (1,660 g×15 min) was loaded onto a discontinuous sucrose density gradient With steps of 0.83 M and 2.66 M sucrose containing MgCl2 and TES. The gradients were spun to equilibrium at 242,000 g for 40 min in a vertical rotor (Vti50, Beckman). The GCP fraction at the 0.32/0.83 M sucrose interface was collected and used for the experiments described below.
(§3) All assays were run in triplicate.

[12] = system: growth cone PLC; assay: Phospholipase C assay (DG release) in GCPs; assay type: biochemical, rat; conditions: IGF-1, low nanomolar range; 10 μM free Ca^2+
Source text: as §3

Compound: calphostin C
effect of PKC inhibitor pretreatment on 12(S)-HETE-triggered pseudopod withdrawal ([1]; 12(S)-HETE 10^−10M, calphostin 50 and 100 nM, 15 min pretreatment): blocks pseudopod retraction; also recorded: completely inhibited pseudopod withdrawal
effect of inhibitor on thrombin-stimulated MARCKS and GAP43 phosphorylation [2]: blocks phosphorylation
IC50 [3]: 50 nM

effect of inhibitor on thrombin-stimulated MARCKS and GAP43 phosphorylation [2]: blocks phosphorylation
Compound: N#CC(=Cc1ccc(O)c(O)c1)C(=O)OCC=Cc1ccccc1 [CDC, cinnamyl-3,4-dihydroxy-α-cyanocinnamate]
effect of LOX inhibitor on thrombin inhibition of migration ([4]; CDC with thrombin, Table 1): reverses the effect of thrombin
Mat-Lu cells crossing filter in % of control +/− SEM ([4]; Control column (no IGF-1), 4 hr): 97.5 +/− 11.0 % of control
Mat-Lu cells crossing filter in % of control +/− SEM ([4]; IGF-1 (0.75 nM), 4 hr): 118 +/− 10.4 % of control
effect of inhibitor pretreatment on AA-induced pseudopod shortening ([1]; 15 min pretreatment, indomethacin 10 ηm, NDGA 25 μM, CDC 63 and 126 nM): blocked the AA effect completely; also recorded: reversed the AA effect; also recorded: reversed to control levels
effect of agent alone on pseudopod length [1]: seemed to cause pseudopod elongation
effect of CDC pretreatment on 12(S)-HETE-induced collapse ([5]; 12(S)-HETE 10^−7M): is not affected
effect of inhibitor pretreatment on thrombin- or TRAP-induced growth cone collapse ([5]; CDC 10 μM, indomethacin 25 μM, pretreatment 30-45 min): inhibits the thrombin effect on growth cones; also recorded: partially inhibits collapse; also recorded: almost complete inhibition of this effect
effect of inhibitor on thrombin-stimulated HETE production from AA ([6]; 3H-AA substrate): strongly inhibited
effect on thrombin-stimulated HETE levels ([6]; 14C-AA-PC substrate, CDC 0.156 μM): reduces thrombin-stimulated HETE levels to below control
IC50 [7]: 63 nM

Compound: CCCCC/C=C\C/C=C\C/C=C\C/C=C\CCCC(=O)O [AA, arachidonic acid]
effect of agent alone on pseudopod length [1]: caused significant but reversible reduction of pseudopod length; also recorded: mimics the thrombin-induced length reduction; also recorded: causes statistically significant pseudopod shortening
pseudopod retraction response of AT-2 cells [8]: almost completely insensitive
pseudopod response to AA [9]: responded to AA in the manner described for MAT-Lu cells
concentration at peak of biphasic PKC γ response [10]: 12 µM

stimulation of DG release in GCPs [12]: approximately two-fold
Compound: IGF-1: insulin-like growth factor-1, positive chemotactic factor
Mat-Lu cells crossing filter in % of control +/− SEM ([4]; IGF-1 (0.75 nM), 4 hr): 184 +/− 15 % of control
enhancement of MAT-Lu migration across laminin-coated membrane ([4]; IGF-1 in the lower chamber, 4 hr): about 1.8 fold
increase in MAT-Lu migration ([4]; four-hour assays): about 80%
stimulation of AA release from PI ([11]; IGF-1, low nanomolar range, 10 μM free Ca^2+): about 1.7 fold
net activity (pmol/min/mg protein) ([11]; Table 3c, GCPs, substrate PI, BDNF 100, IGF-1 0.75, insulin 1, thrombin 200 nM, control 159 ± 6.2): 177 ± 14.5 pmol/min/mg protein
